Test results: patent publication US20110136883A1, “GRANULATION OF ACTIVE PHARMACEUTICAL INGREDIENTS” (LEK PHARMACEUTICALS D.D., priority 2008, published 2011)

Tests used:
Type in all cases: physicochemical
[1] = Physical properties of bulk powder / final granulate (moisture, densities, compressibility, flowability, angle of repose)
Procedure: Therefore, an oral pharmaceutical dosage needs a high dose of eprosartan mesylate to be incorporated into the pharmaceutical formulation in order to achieve the desired biological effect (here: significant reduction of blood pressure). The recommended daily starting and usual maintenance dose of eprosartan mesylate when used as monotherapy is 735.8 mg, equivalent to 600 mg eprosartan, available as the commercial Teveten 600 mg tablets. Therefore, the amount of excipients, required to achieve satisfactory technological properties (i.e. flowability, compressibility) should be the least possible to keep the weight of the tablet as low as possible (i.e. less than 1000 mg). Solubility, flowability or compressibility can be determined by using known methods in the art, for example the methods explained in the European Pharmacopoeia, 6th Edition. Larger tablets are in the light of patient compliance less preferred. WO 2006/052461 A1 proposes to enhance bioavailability of eprosartan by addition of substantial amounts of a solubilizer and an emulsifier.
Physical properties of briquetting powder as well as final mixture are important for a successful technological procedure using NAMADG.
Further, the impact of various nonaqueos liquid excipients on the formulation of Eprosartan tablets obtained from Examples 3 to 7 (cf. Tables 2 and 3), referring to a matrix of 1000 mg (mass after NAMADG+briquetting+sieving+blending), are summarized in Table 4.

Hygroscopicity = conditions: at over 60% RH
Procedure: Hygroscopicity of an API or excipient can be measured by methods known to a skilled person. Mainly, such methods comprise determining the mass of small amounts of sample (i.e. 5-10 mg) as a function of time, while varying the controlled relative humidity and/or temperature in the environment. Data on hygroscopicity of mainly used excipients can be obtained from Handbook of Pharmaceutical Excipients, 4th edition, Rowe R C, Sheskey P J, Weller P J, eds.; Pharmaceutical Press and American Pharmaceutical Association, London-Washington, UK-USA, 2003.

[2] = X-ray diffraction check of eprosartan mesylate form (physical stability during processing); conditions: ambient temperature and humidity used throughout the NAMADG-based method
Procedure: In order to test the ability of the NAMADG process principle according to the present invention for preparing tablets without occurrence different polymorphic forms of the API in the product, a placebo powder without API and anhydrous eprosartan mesylate processed according to Examples 2 to 7 were investigated. All examples were checked for eprosartan form. For comparison tests were conducted after conventional wet granulation conditions.
As a result, physical stability of the eprosartan mesylate was proven during processes when using the most critical API form, i.e. the anhydrate. […] The final tablet form and placebo powder were analyzed by X-ray diffraction (XRD) pattern to confirm presence of anhydrous form of eprosartan mesylate. More generally, X-ray diffraction (XRD) pattern can be obtained by methods known in the art, for example using Philips X'Pert PRO diffractometer with X'Celerator detector while exposing the searched material to CuKa radiation.

[3] = bulk eprosartan, particle size <10μ

Row | Angle of repose (°) [1, 3] [°] | Compressibility (%) [1, 3] [%] | Flow density [1, 3] [mL/g] | Moisture (%) [1, 3] | Tapped density [1, 3] [mL/g] | flowability [1, 3] [g/s] | flowability ([1]; drug per se, sticking on punches) | hygroscopicity (Hygroscopicity) | physical and chemical stability [2] | SMILES
1 | >43 | >30 | >4.00 | 0.1-0.5% | >3.00 | <0.10 | – | – | – | CCCCc1ncc(/C=C(\Cc2cccs2)C(=O)O)n1Cc1ccc(C(=O)O)cc1 [Bulk eprosartan]
2 | – | – | – | – | – | – | below 0.15 g/sec | hygroscopic | physically and chemically stable | CCCCc1ncc(/C=C(\Cc2cccs2)C(=O)O)n1Cc1ccc(C(=O)O)cc1.CS(=O)(=O)O [eprosartan mesylate, (E)-α-[2-n-butyl-1-[(4-carboxyphenyl)methyl]-1H-imidazol-5-yl]methylene-2-thiophenepropionic acid monomethanesulfonate]
